Measurements: article PMC11125181, “New Inhibitors of Bcr-Abl Based on 2,6,9-Trisubstituted Purine Scaffold Elicit Cytotoxicity in Chronic Myeloid Leukemia-Derived Cell Lines Sensitive and Resistant to TKIs” (Pharmaceutics, 2024)
Read-outs that look alike come from different tables or passages of the source.

Experiments:
[1] = tested on: STAT5 phosphorylation, PARP cleavage in KCL22 B10; assay: Immunoblotting of Bcr-Abl pathway proteins, KCL22 B10; assay type: cell-based, human; conditions: immunoblot, 24 h treatment
Procedure: (§1) Cell lysates were separated on SDS–polyacrylamide gels and electroblotted onto nitrocellulose membranes. After blocking, overnight incubation with specific primary antibodies was performed, followed by wash and incubation with peroxidase-conjugated secondary antibodies (Cell Signalling). Peroxidase activity was detected with SuperSignal West Pico reagents (Thermo Scientific, Waltham, MA, USA) using a CCD camera LAS-4000 (Fujifilm, Tokyo, Japan). The following specific primary antibodies were used: Cell Signalling: anti-STAT5 (#94205), anti-p-STAT5 Y694 (#9351), anti-Crkl (#3182), anti-p-Crkl Y207 (#3181), anti-cyclin A (#4656), anti-p-Bcr Y177 (#3901), and anti-PARP (#9532); Santa Cruz Biotechnology: anti-β-actin (#sc-47778).

KCL22 B10 (Y253H, 50%) = assay: Cytotoxicity assay (resazurin) on KCL22 subclone B10; assay type: cell-based; conditions: Homo sapiens, KCL-22, read-out: GI50 KCL22 B10 Y253H (50%), 72 h
Procedure: (§2) Human cell lines KCL22 and BV173 were obtained from the German Collection of Microorganisms and Cell Cultures, K562 and HEK-293T from the European Collection of Authenticated Cell Cultures. KBM5 cell line was kindly gifted by Vladimír Divoký. Development of KCL22 subclones B8 (T315I, 100%), F4 (E255K, 100%), and B10 (Y253H, 50%) was reported previously. All cell lines were cultivated in humidified incubator at 37 °C and in 5% CO2 according to the provider’s instructions in appropriate media supplemented with 10% fetal bovine serum, penicillin (100 IU/mL), streptomycin (100 µg/mL), and glutamine (4 mM).
(§3) Cytotoxicity was determined using resazurin, an indicator dye to measure oxidation-reduction reactions occurring in the mitochondria of live cells. The cells were seeded into 96-well plates and treated with compounds for 72 h (six different doses of each, in triplicate). After treatment, resazurin (Merck, Darmstadt, Germany) solution was added for 4 h, and the fluorescence of formed resorufin corresponding to live cell quantity was measured at 544 nm/590 nm (excitation/emission) using a Fluoroskan Ascent microplate reader (Labsystems, Vantaa, Finland).

KCL22 F4 (E255K) = assay: Cell cycle flow cytometry, KCL22 F4; assay type: cell-based, human; conditions: 24 h treatment
Procedure: (§4) The cell lines were seeded into 96-well plates and then treated with compounds for 24 h. After treatment, the cells were directly stained by adding 5 × staining solution (17 mM trisodium citrate dihydrate, 0.5% IGEPAL® CA-630, 7.5 mM spermine tetrahydrochloride, 2.5 mM Tris; pH 7.6 containing 50 μg/mL propidium iodide). DNA content was measured by flow cytometry using a 488 nm laser (BD FACS Verse with software BD FACSuite™, version 1.0.6.). Cell cycle distribution was analyzed using ModFit LT 5.0.9 (Verity Software House, Augusta, ME, USA).

KBM5 = assay: Cytotoxicity assay (resazurin) on KBM5; assay type: cell-based; conditions: Homo sapiens, KBM5; 72 h, resazurin assay; read-out: GI50 KBM5
KCL22 B10 (Y253H) = assay: Cell cycle flow cytometry, KCL22 B10; assay type: cell-based, human; conditions: 24 h treatment
Procedure: as §4

recombinant Abl1 kinase [2] = target: T1, recombinant Abl1 kinase (Homo sapiens, UniProt P00519); assay: Recombinant Abl1 kinase inhibition assay ([γ-33P]ATP, peptide substrate); assay type: biochemical
T1 construct: made in house
T1 sequence (P00519 whole entry): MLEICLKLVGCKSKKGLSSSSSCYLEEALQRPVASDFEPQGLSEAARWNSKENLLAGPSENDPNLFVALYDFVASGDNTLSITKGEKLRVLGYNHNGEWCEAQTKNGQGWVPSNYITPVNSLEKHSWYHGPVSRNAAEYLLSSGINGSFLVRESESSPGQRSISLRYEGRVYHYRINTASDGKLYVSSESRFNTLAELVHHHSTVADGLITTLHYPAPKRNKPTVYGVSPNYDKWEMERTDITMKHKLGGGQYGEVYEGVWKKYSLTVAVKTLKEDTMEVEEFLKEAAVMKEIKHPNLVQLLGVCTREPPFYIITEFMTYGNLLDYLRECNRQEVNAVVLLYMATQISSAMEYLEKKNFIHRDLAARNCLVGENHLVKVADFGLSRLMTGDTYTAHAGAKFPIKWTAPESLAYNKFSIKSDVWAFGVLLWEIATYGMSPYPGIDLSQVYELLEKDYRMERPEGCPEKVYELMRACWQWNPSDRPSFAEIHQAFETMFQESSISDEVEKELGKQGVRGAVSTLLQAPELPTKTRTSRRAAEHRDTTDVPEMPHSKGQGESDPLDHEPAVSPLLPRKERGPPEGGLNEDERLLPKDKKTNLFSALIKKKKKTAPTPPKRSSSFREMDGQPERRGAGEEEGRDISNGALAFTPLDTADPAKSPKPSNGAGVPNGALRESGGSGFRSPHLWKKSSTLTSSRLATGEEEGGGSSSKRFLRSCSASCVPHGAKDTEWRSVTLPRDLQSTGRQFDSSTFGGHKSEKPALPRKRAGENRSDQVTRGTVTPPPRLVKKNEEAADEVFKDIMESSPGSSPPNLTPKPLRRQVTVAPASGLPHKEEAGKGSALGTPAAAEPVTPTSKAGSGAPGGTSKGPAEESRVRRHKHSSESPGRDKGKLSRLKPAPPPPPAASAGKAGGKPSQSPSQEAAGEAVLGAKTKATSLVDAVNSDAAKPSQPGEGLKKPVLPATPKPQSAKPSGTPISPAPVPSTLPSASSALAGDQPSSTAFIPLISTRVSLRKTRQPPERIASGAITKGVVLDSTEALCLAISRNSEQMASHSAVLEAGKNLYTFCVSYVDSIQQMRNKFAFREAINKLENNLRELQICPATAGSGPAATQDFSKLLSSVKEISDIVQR
Procedure: The reactions were stopped by adding 5 µL of 3% aq. H3PO4. […] H3PO4, and air-dried.

[3] = tested on: STAT5 phosphorylation, PARP cleavage in KCL22 F4; assay: Immunoblotting of Bcr-Abl pathway proteins, KCL22 F4; assay type: cell-based, human; conditions: immunoblot, 24 h treatment
Procedure: as §1

BV173 = assay: Cytotoxicity assay (resazurin) on BV173; assay type: cell-based; conditions: Homo sapiens, BV-173, 72 h
Procedure: as §2, §3

[4] = tested on: KCL22 cells containing Bcr-Abl^WT; assay: Cytotoxicity assay (resazurin) on KCL22 WT; assay type: cell-based, human; conditions: Homo sapiens, KCL-22, 72 h, read-out: GI50 KCL22 WT
[5] = tested on: KBM5, BV173, K562 (Bcr-Abl rearranged cell lines); assay: Cytotoxicity across cell lines with Bcr-Abl rearrangement; assay type: cell-based; conditions: Homo sapiens, read-out: GI50 in Bcr-Abl rearranged cell lines (span over cell lines)
Procedure: as §2, §3

HEK-293T = assay: Cytotoxicity assay (resazurin) on non-neoplastic HEK-293T; assay type: cell-based; conditions: Homo sapiens, 72 h, non-neoplastic cells
Procedure: as §2, §3

KCL22 B8 (T315I, 100%) = assay: Cytotoxicity assay (resazurin) on KCL22 subclone B8; assay type: cell-based; conditions: Homo sapiens, KCL-22, read-out: GI50 KCL22 B8 T315I (100%), 72 h
Procedure: as §2, §3

[6] = tested on: KCL22 B8 cell line containing Bcr-Abl^T315I; assay: Cell cycle flow cytometry, KCL22 B8; assay type: cell-based, human; conditions: 24 h treatment
Procedure: The cell lines were seeded into 96-well plates and then treated with compounds for 24 h. After treatment, the cells were directly stained by adding 5 × staining solution (17 mM trisodium citrate dihydrate, 0.5% IGEPAL® CA-630, 7.5 mM spermine tetrahydrochloride, 2.5 mM Tris; pH 7.6 containing 50 μg/mL propidium iodide). […] Cell cycle distribution was analyzed using ModFit LT 5.0.9 (Verity Software House, Augusta, ME, USA).

KCL22 WT cells = assay: Cell cycle flow cytometry, KCL22 WT; assay type: cell-based, human; conditions: 24 h treatment, increasing concentration up to 5 µM
Procedure: as §4

KCL22 F4 (E255K, 100%) = assay: Cytotoxicity assay (resazurin) on KCL22 subclone F4; assay type: cell-based; conditions: Homo sapiens, KCL-22, read-out: GI50 KCL22 F4 E255K (100%), 72 h
Procedure: as §2, §3

[7] = tested on: p-Crkl, p-STAT5, PARP, cyclin A in WT KCL22 cell line; assay: Immunoblotting of Bcr-Abl pathway proteins, WT KCL22; assay type: cell-based, human; conditions: immunoblot, 24 h treatment
Procedure: as §1

K562 = assay: Cytotoxicity assay (resazurin) on K562; assay type: cell-based; conditions: Homo sapiens, 72 h
Procedure: as §2, §3

[8] = tested on: KCL22 models (WT, B8, F4, B10); assay: Cytotoxicity across all KCL22 models; assay type: cell-based; conditions: Homo sapiens, KCL-22, read-out: GI50 in all KCL22 models (span over models)
Procedure: as §2, §3

recombinant Abl1 kinase [9] = target: T1, recombinant Abl1 kinase; conditions: Figure 2A, compounds with longer N-9 substituents; read-out: IC50 Bcr-Abl; cited from earlier work
[10] = from the IC50 of Table S1, read-out: pIC50 (Table S1) (converted)
[11] = recombinant Abl1, 1 µM ATP, at least three independent experiments, read-out: IC50 Abl

Row | SMILES | GI50 (KCL22 B10 (Y253H, 50%)) [µM] | GI50 (KBM5) [µM] | IC50 (recombinant Abl1 kinase [2]; [10]) [µM] | IC50 (recombinant Abl1 kinase [2]; [11]) [µM] | GI50 (BV173) [µM] | GI50 [4] [µM] | GI50 (HEK-293T) [µM] | GI50 (KCL22 B8 (T315I, 100%)) [µM] | Effect on cell cycle distribution, KCL22 B8 (T315I) [6] | GI50 (KCL22 F4 (E255K, 100%)) [µM] | GI50 (K562) [µM] | other results
1 | OCCN1CCN(c2ccc(Nc3nc(Nc4cccc(F)c4)c4ncn(CC5CC5)c4n3)cc2)CC1 [Compound 11b, 2-(4-(4-((9-(Cyclopropylmethyl)-6-((3-fluorophenyl)amino)-9H-purin-2-yl)amino)phenyl)piperazin-1-yl)ethan-1-ol] | 2.6 ± 0.2 | 1.3 ± 0.1 | 0.014 | 0.015 ± 0.01 | 1.5 ± 0.2 | 2 ± 0.4 | 5.5 ± 0.6 | 11.5 ± 1.1 | resistant | 4.1 ± 0.1 | 0.7 ± 0.2 | Effect on Bcr-Abl downstream proteins, KCL22 B10 [1]: significantly pronounced in both mutant cell lines; Effect on cell cycle distribution, KCL22 F4 (KCL22 F4 (E255K)): arrested F4 and B10 mutant models in G1 phase; Effect on cell cycle distribution, KCL22 B10 (KCL22 B10 (Y253H)): arrested F4 and B10 mutant models in G1 phase; Effect on Bcr-Abl downstream proteins, KCL22 F4 [3]: significantly pronounced in both mutant cell lines; GI50 [5]: 0.7 to 1.3 µM; Effect on cell cycle distribution, KCL22 WT (KCL22 WT cells): significant block of WT cells in G1 phase; Effect on Bcr-Abl downstream proteins, WT KCL22 [7]: downregulated the levels of p-Crkl and p-STAT5
2 | CC(C)CCn1cnc2c(Nc3cccc(F)c3)nc(Nc3ccc(N4CCN(CCO)CC4)cc3)nc21 [Compound 11e, 2-(4-(4-((6-((3-Fluorophenyl)amino)-9-isopentyl-9H-purin-2-yl)amino)phenyl)piperazin-1-yl)ethan-1-ol] | 6.9 ± 0.1 | 5 ± 0.1 | 0.13 | 0.131 ± 0.071 | 3.8 ± 0.1 | 6.1 ± 0.1 | 4.7 ± 0.7 | 6.9 ± 0.8 | resistant | 5.6 ± 0.5 | 4.3 ± 0.2 | IC50 (recombinant Abl1 kinase [2]; as listed in Table S1, Bcr-Abl WT, read-out: IC50 (Table S1)): 0.13 µM; GI50 [8]: 5.6 to 6.9 µM
3 | CC(C)CCn1cnc2c(Nc3ccc(F)c(F)c3)nc(Nc3ccc(N4CCN(C)CC4)cc3)nc21 [IV] | – | – | – | – | – | – | – | – | – | – | – | IC50 (recombinant Abl1 kinase [9]): 2.28 µM
